*1 amine or outer side, *2 acyl side, *3 side chain or, on linkers, in order; H or OH if unused. Where a SMILES comes first, the peptide text is derived from it. Bridges are numbered along the chain shown (N, C = ends). [ ]: non-standard residue; d: D form. The star is where a group is joined. NH(1-deoxy-D-glucityl) = OC[C@@H](O)[C@@H](O)[C@H](O)[C@@H](O)CN*; DOTA = O=C(O)CN1CCN(CC(=O)O)CCN(CC(=O)*)CCN(CC(=O)O)CC1; X9 = O=C(O)CN1CCN(CC(=O)O)CCN([C@H](CCC(=O)*)C(=O)O)CC1; Trp(5-Cl) = N[C@@H](Cc1c[nH]c2ccc(Cl)cc12)C(=O)O; Pyridine(2,6-diCH2) = c1cc(C[*:1])nc(C[*:2])c1; Pro(4R-NH2) = N[C@H]1CN[C@H](C(=O)O)C1; Glutaryl = O=C(CCCC(=O)[*:2])[*:1]; PEG6 = NCCOCCOCCOCCOCCOCCOCCC(=O)O; X1 = O=C(CN1CCC(N[*:1])CC1)[*:2]; Suc = O=C(CCC(=O)[*:2])[*:1]; dDab = NCC[C@@H](N)C(=O)O; Api = NC1(C(=O)O)CCNCC1; Dab = NCC[C@H](N)C(=O)O; Thp = NC1(C(=O)O)CCOCC1; AEEA = NCCOCCOCC(=O)O A value given as a limit tells only on which side of the number the result lay.

The assay deals with T1, GIPR (CHO-K1-hGIPR cells) (Homo sapiens, UniProt P48546).
T1 construct: host or cells: CHO-K1
T1 sequence (P48546 22-466): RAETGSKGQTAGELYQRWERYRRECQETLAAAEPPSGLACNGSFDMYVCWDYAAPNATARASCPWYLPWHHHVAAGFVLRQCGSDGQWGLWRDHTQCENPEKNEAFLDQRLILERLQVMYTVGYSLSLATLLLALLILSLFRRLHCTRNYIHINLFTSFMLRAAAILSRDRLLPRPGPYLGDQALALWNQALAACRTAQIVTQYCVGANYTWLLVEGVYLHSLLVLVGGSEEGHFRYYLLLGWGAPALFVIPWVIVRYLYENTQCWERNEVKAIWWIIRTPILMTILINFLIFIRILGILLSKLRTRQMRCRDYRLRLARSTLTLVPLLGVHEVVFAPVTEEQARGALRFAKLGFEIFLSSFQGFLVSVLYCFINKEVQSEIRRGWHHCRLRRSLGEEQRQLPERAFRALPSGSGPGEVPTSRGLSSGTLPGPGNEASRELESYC
The assay can be described thus: FACS binding assay. As to conditions: competition with 20 nM GIP-057, 4° C., 1 hour, read-out: pIC50 Category (converted). As to the method: In order to determine binding of compounds according to the present invention to GIPR-expressing cells, a FACS binding assay was established.
CHO-K1-hGIPR cells (GenScript Biotech, #M00486) were cultured in Ham's F12 medium (Sigma-Aldrich, #N4888) including 10% fetal calf serum (FCS), 2 mM L-glutamine, 100 U/mL penicillin, 100 μg/mL streptomycin, 200 μg/mL Zeocin and 100 μg/mL HygromycinB. Cells were detached with Accutase (Biolegend, #BLD-423201) and washed in FACS buffer (PBS including 1% FCS). Cells were diluted in FACS buffer to a final concentration of 500.000 cells per mL. 200 μL of the cell suspension were transferred to a u-shaped non-binding 96-well plate (Greiner) and cells were washed in ice-cold FACS buffer.
Cells were washed twice in FACS buffer. An additional incubation step with 1 μg/mL APC-Streptavidin (Miltenyi; #130-106-791) in 50 μL FACS buffer for 30 min on ice was performed followed by two washes with FACS buffer.
Cells were analyzed in an Attune NxT flow cytometer. Median fluorescence intensities (MFI) of the APC/Cy5-channel were calculated by Attune NxT software. MFI values were plotted against peptide concentration and four parameter logistic (4PL) curve fitting and EC50/pEC50 or IC50/pIC50 calculations were performed using ActivityBase software.

For `CC[C@H](C)[C@@H]1NC(=O)[C@H](CC(C)C)NC(=O)C2(CCOCC2)NC(=O)[C@@H](NC(=O)[C@@H](CC(C)C)NC(=O)[C@H](CCC(=O)O)NC(=O)[C@@H]2C[C@@H](N)CN2C(=O)[C@H](Cc2c[nH]c3ccc(Cl)cc23)NC(=O)[C@H](Cc2c[nH]c3ccccc23)NC(=O)[C@H](CC(=O)O)NC(=O)CCOCCOCCOCCOCCOCCOCCNC(=O)[C@@H](CCC(=O)NC[C@H](O)[C@@H](O)[C@H](O)[C@H](O)CO)NC(=O)CN2CCN(CC(=O)O)CCN(CC(=O)O)CCN(CC(=O)O)CC2)CSCc2cccc(n2)CSC[C@@H](C(=O)NC2CCN(CC(=O)N[C@H](CCC(=O)NC[C@H](O)[C@@H](O)[C@H](O)[C@H](O)CO)C(N)=O)CC2)NC1=O` [GIP-019, DOTA-glu(AGLU)-PEG6-Asp-Trp-5Clw-Tap-Glu-leu-[Cys(2Lut)-Thp-Leu-Ile-Cys]-APAc-glu(AGLU)-NH2] ({DOTA}-[dE](NH(1-deoxy-D-glucityl))[PEG6]DW[Trp(5-Cl)][Pro(4R-NH2)]E[dL]C[Thp]LIC[X1][dE](NH(1-deoxy-D-glucityl))-NH2; linker 9-13 via Pyridine(2,6-diCH2)), the IC50 was less than 10 nM.
The result for `CC[C@H](C)[C@@H]1NC(=O)[C@H](CC(C)C)NC(=O)C2(CCOCC2)NC(=O)[C@@H](NC(=O)[C@@H](CC(C)C)NC(=O)[C@H](CCC(=O)O)NC(=O)[C@@H]2C[C@@H](N)CN2C(=O)[C@H](Cc2c[nH]c3ccc(Cl)cc23)NC(=O)[C@H](Cc2c[nH]c3ccccc23)NC(=O)[C@H](CC(=O)O)NC(=O)COCCOCCNC(=O)[C@@H](CCC(=O)NC[C@H](O)[C@@H](O)[C@H](O)[C@H](O)CO)NC(=O)CN2CCN(CC(=O)O)CCN(CC(=O)O)CCN(CC(=O)O)CC2)CSCc2cccc(n2)CSC[C@@H](C(=O)NC2CCN(CC(=O)N[C@H](CCC(=O)NC[C@H](O)[C@@H](O)[C@H](O)[C@H](O)CO)C(N)=O)CC2)NC1=O` [GIP-020, DOTA-glu(AGLU)-O2Oc-Asp-Trp-5Clw-Tap-Glu-leu-[Cys(2Lut)-Thp-Leu-Ile-Cys]-APAc-glu(AGLU)-NH2] ({DOTA}-[dE](NH(1-deoxy-D-glucityl))[AEEA]DW[Trp(5-Cl)][Pro(4R-NH2)]E[dL]C[Thp]LIC[X1][dE](NH(1-deoxy-D-glucityl))-NH2; linker 9-13 via Pyridine(2,6-diCH2)) reads less than 10 nM; that for `CC[C@H](C)[C@@H]1NC(=O)[C@H](CC(C)C)NC(=O)C2(CCN(C(=O)CN3CCN(CC(=O)O)CCN(CC(=O)O)CCN(CC(=O)O)CC3)CC2)NC(=O)[C@@H](NC(=O)[C@@H](CC(C)C)NC(=O)[C@H](CCC(=O)O)NC(=O)[C@@H]2C[C@@H](N)CN2C(=O)[C@H](Cc2c[nH]c3ccc(Cl)cc23)NC(=O)[C@H](Cc2c[nH]c3ccccc23)NC(=O)CCC(=O)O)CSCc2cccc(n2)CSC[C@@H](C(=O)NC2CCN(CC(=O)N[C@H](CCC(=O)NC[C@H](O)[C@@H](O)[C@H](O)[C@H](O)CO)C(N)=O)CC2)NC1=O` [GIP-023, HO-Succinyl-Trp-5Clw-Tap-Glu-leu-[Cys(2Lut)-Apc(DOTA)-Leu-Ile-Cys]-APAc-glu(AGLU)-NH2] (Suc-W[Trp(5-Cl)][Pro(4R-NH2)]E[dL]C[Api](DOTA)LIC[X1][dE](NH(1-deoxy-D-glucityl))-NH2; linker 6-10 via Pyridine(2,6-diCH2)), less than 10 nM; that for `CC[C@H](C)[C@@H]1NC(=O)[C@H](CC(C)C)NC(=O)[C@H](CCCCNC(=O)CN2CCN(CC(=O)O)CCN(CC(=O)O)CCN(CC(=O)O)CC2)NC(=O)[C@@H](NC(=O)[C@@H](CC(C)C)NC(=O)[C@H](CCC(=O)O)NC(=O)[C@@H]2C[C@@H](N)CN2C(=O)[C@H](Cc2c[nH]c3ccc(Cl)cc23)NC(=O)[C@H](Cc2c[nH]c3ccccc23)NC(=O)[C@H](CC(=O)O)NC(=O)CCCC(=O)NC[C@H](O)[C@@H](O)[C@H](O)[C@H](O)CO)CSCc2cccc(n2)CSC[C@@H](C(=O)NC2CCN(CC(=O)N[C@H](CCC(=O)NC[C@H](O)[C@@H](O)[C@H](O)[C@H](O)CO)C(N)=O)CC2)NC1=O` [GIP-024, AGLU-Glutar-Asp-Trp-5Clw-Tap-Glu-leu-[Cys(2Lut)-Lys(DOTA)-Leu-Ile-Cys]-APAc-glu(AGLU)-NH2] ({NH(1-deoxy-D-glucityl)-Glutaryl}-DW[Trp(5-Cl)][Pro(4R-NH2)]E[dL]CK(DOTA)LIC[X1][dE](NH(1-deoxy-D-glucityl))-NH2; linker 7-11 via Pyridine(2,6-diCH2)), less than 10 nM.
In the case of `CC[C@H](C)[C@@H]1NC(=O)[C@H](CC(C)C)NC(=O)[C@@H](CCCCNC(=O)CN2CCN(CC(=O)O)CCN(CC(=O)O)CCN(CC(=O)O)CC2)NC(=O)[C@@H](NC(=O)[C@@H](CC(C)C)NC(=O)[C@H](CCC(=O)O)NC(=O)[C@@H]2C[C@@H](N)CN2C(=O)[C@H](Cc2c[nH]c3ccc(Cl)cc23)NC(=O)[C@H](Cc2c[nH]c3ccccc23)NC(=O)[C@H](CC(=O)O)NC(=O)CCCC(=O)NC[C@H](O)[C@@H](O)[C@H](O)[C@H](O)CO)CSCc2cccc(n2)CSC[C@@H](C(=O)NC2CCN(CC(=O)N[C@H](CCC(=O)NC[C@H](O)[C@@H](O)[C@H](O)[C@H](O)CO)C(N)=O)CC2)NC1=O` [GIP-025, AGLU-Glutar-Asp-Trp-5Clw-Tap-Glu-leu-[Cys(2Lut)-lys(DOTA)-Leu-Ile-Cys]-APAc-glu(AGLU)-NH2] ({NH(1-deoxy-D-glucityl)-Glutaryl}-DW[Trp(5-Cl)][Pro(4R-NH2)]E[dL]C[dK](DOTA)LIC[X1][dE](NH(1-deoxy-D-glucityl))-NH2; linker 7-11 via Pyridine(2,6-diCH2)), the IC50 was 10 to 79.4 nM.
On to `CC[C@H](C)[C@@H]1NC(=O)[C@H](CC(C)C)NC(=O)[C@H](CCNC(=O)CN2CCN(CC(=O)O)CCN(CC(=O)O)CCN(CC(=O)O)CC2)NC(=O)[C@@H](NC(=O)[C@@H](CC(C)C)NC(=O)[C@H](CCC(=O)O)NC(=O)[C@@H]2C[C@@H](N)CN2C(=O)[C@H](Cc2c[nH]c3ccc(Cl)cc23)NC(=O)[C@H](Cc2c[nH]c3ccccc23)NC(=O)[C@H](CC(=O)O)NC(=O)CCCC(=O)NC[C@H](O)[C@@H](O)[C@H](O)[C@H](O)CO)CSCc2cccc(n2)CSC[C@@H](C(=O)NC2CCN(CC(=O)N[C@H](CCC(=O)NC[C@H](O)[C@@H](O)[C@H](O)[C@H](O)CO)C(N)=O)CC2)NC1=O` [GIP-026, AGLU-Glutar-Asp-Trp-5Clw-Tap-Glu-leu-[Cys(2Lut)-Dab(DOTA)-Leu-Ile-Cys]-APAc-glu(AGLU)-NH2] ({NH(1-deoxy-D-glucityl)-Glutaryl}-DW[Trp(5-Cl)][Pro(4R-NH2)]E[dL]C[Dab](DOTA)LIC[X1][dE](NH(1-deoxy-D-glucityl))-NH2; linker 7-11 via Pyridine(2,6-diCH2)), for which the IC50 is less than 10 nM.
The result for `CC[C@H](C)[C@@H]1NC(=O)[C@H](CC(C)C)NC(=O)[C@@H](CCNC(=O)CN2CCN(CC(=O)O)CCN(CC(=O)O)CCN(CC(=O)O)CC2)NC(=O)[C@@H](NC(=O)[C@@H](CC(C)C)NC(=O)[C@H](CCC(=O)O)NC(=O)[C@@H]2C[C@@H](N)CN2C(=O)[C@H](Cc2c[nH]c3ccc(Cl)cc23)NC(=O)[C@H](Cc2c[nH]c3ccccc23)NC(=O)[C@H](CC(=O)O)NC(=O)CCCC(=O)NC[C@H](O)[C@@H](O)[C@H](O)[C@H](O)CO)CSCc2cccc(n2)CSC[C@@H](C(=O)NC2CCN(CC(=O)N[C@H](CCC(=O)NC[C@H](O)[C@@H](O)[C@H](O)[C@H](O)CO)C(N)=O)CC2)NC1=O` [GIP-027, AGLU-Glutar-Asp-Trp-5Clw-Tap-Glu-leu-[Cys(2Lut)-dab(DOTA)-Leu-Ile-Cys]-APAc-glu(AGLU)-NH2] ({NH(1-deoxy-D-glucityl)-Glutaryl}-DW[Trp(5-Cl)][Pro(4R-NH2)]E[dL]C[dDab](DOTA)LIC[X1][dE](NH(1-deoxy-D-glucityl))-NH2; linker 7-11 via Pyridine(2,6-diCH2)) reads 10 to 79.4 nM; that for `CC[C@H](C)[C@@H]1NC(=O)[C@H](CC(C)C)NC(=O)C2(CCN(C(=O)CC[C@H](C(=O)O)N3CCN(CC(=O)O)CCN(CC(=O)O)CC3)CC2)NC(=O)[C@@H](NC(=O)[C@@H](CC(C)C)NC(=O)[C@H](CCC(=O)O)NC(=O)[C@@H]2C[C@@H](N)CN2C(=O)[C@H](Cc2c[nH]c3ccc(Cl)cc23)NC(=O)[C@H](Cc2c[nH]c3ccccc23)NC(=O)[C@H](CC(=O)O)NC(=O)CCCC(=O)NC[C@H](O)[C@@H](O)[C@H](O)[C@H](O)CO)CSCc2cccc(n2)CSC[C@@H](C(=O)NC2CCN(CC(=O)N[C@H](CCC(=O)NC[C@H](O)[C@@H](O)[C@H](O)[C@H](O)CO)C(N)=O)CC2)NC1=O` [GIP-028, AGLU-Glutar-Asp-Trp-5Clw-Tap-Glu-leu-[Cys(2Lut)-Apc(NODAGA)-Leu-Ile-Cys]-APAc-glu(AGLU)-NH2] ({NH(1-deoxy-D-glucityl)-Glutaryl}-DW[Trp(5-Cl)][Pro(4R-NH2)]E[dL]C[Api](X9)LIC[X1][dE](NH(1-deoxy-D-glucityl))-NH2; linker 7-11 via Pyridine(2,6-diCH2)), less than 10 nM.

These data come from US20250296971A1, “GASTRIC INHIBITORY PEPTIDE RECEPTOR LIGANDS” (priority 2021, published 2025).
